Reference: patent US12544371B2, “Methods and compositions for treating acute lung injury and acute respiratory distress syndrome” (CalciMedica, Inc., priority 2020, dated 2026)
Where two headings read alike, the source gives them in different places.

Tests used:
3T3 = experiment: In vitro 3T3 phototoxicity; type: cell-based
[1] = tested on: IL-2 release by human PBMCs; experiment: IL-2 release by human PBMCs, isolated cell assay; type: cell-based; details: PBMC, SEM (n), read-out: Compound 1 IC50, IL-2 release by human PBMCs
Excerpt: (§1) CRAC channels may play a proximal role in a calcium-calcineurin pathway leading to cytokine release in immune cells.

[2] = Phase 2 trial in severe COVID-19 pneumonia, interim results; type: in vivo, human; details: for Difference (Compound 1 − Standard Care), estimated mean of ordinal scale: MMRM; for Difference (Compound 1 − Standard Care), ordinal scale, sensitivity analysis: three patients with PaO2/FiO2<100 removed
Method: A phase 2 clinical trial is performed to evaluate Compound 1 in patients with severe COVID-19 pneumonia. The study will investigate the use of Compound 1 in patients with severe COVID-19 pneumonia who are at risk for progression to acute respiratory distress syndrome (ARDS).
Compound 1 Dose and Route of Administration: 2.0 mg/kg of an injectable emulsion of Compound 1 will be administered at 0 hour and 1.6 mg/kg will be administered at both 24 hours and 48 hours from the Start of the First Infusion of Study Drug (SFISD).
Study Design: In this randomized controlled open-label stage study, 60 patients who meet all of the inclusion criteria and none of the exclusion criteria will be randomized 2:1 to receive Compound 1 or continue with the local standard of care. The dose of Compound 1 will be 2.0 mg/kg of Compound 1 administered at 0 hour, and 1.6 mg/kg at 24 hours and 1.6 mg/kg at 48 hours. The SFISD should occur within 8 hours of the patient or LAR providing informed consent. The dosing will be based on actual body weight obtained at the time of hospitalization or screening for the study. A study physician or appropriately trained delegate will perform assessments at screening, immediately prior to the SFISD, and immediately prior to each subsequent infusion. At 72 hours after the SFISD, the patient will be assessed every 24 hours (±4 hours) until Day 30 after the SFISD, or until discharge if earlier. Patients who are discharged before Day 25 after the SFISD will be contacted at Day 30 (±5 days) and Day 60 (+5 days) for a safety and mortality assessment. Patients randomized to receive local standard of care will not have blood samples drawn for PK assessments.
Interim results for the phase 2 trial have been obtained, as follows. 18 patients with severe COVID-19 pneumonia have been enrolled, in which 12 treated have been treated with an injectable emulsion of Compound 1, and 6 have received the standard of care. 3 sites are currently enrolling patients. 11 of the enrolled patients are at site 1 (8 treated and 3 SOC), 3 are at site 2 (1 treated and 2 SOC), and 4 are at site 3 (3 treated and 1 SOC). The subjects with severe COVID-19 were those that necessitated low-flow oxygen treatment.
Compound 1 in Severe COVID-19 Pneumonia: Time to Hospital Discharge. One subject in standard care group was discharged with low flow treatment and is considered as censored at discharge instead of out of hospital. 3 patients who died were censored at Day 30. […] Similar improvements would be expected upon treatment with other intracellular Calcium signaling inhibitors or CRAC inhibitors.
Compound 1 in Severe COVID-19 Pneumonia: Ordinal Scale Analysis. The data in are based on an MMRM model and missing at random assumption. The ordinal scale was as follows: 1. Death 2. Hospitalized, on invasive mechanical ventilation or ECMO 3. Hospitalized, on non-invasive ventilation or high flow oxygen devices 4. Hospitalized, requiring low flow supplemental oxygen 5. Hospitalized, not requiring supplemental oxygen—requiring ongoing medical care (coronavirus (e.g. COVID-19) related or otherwise) 6. Hospitalized, not requiring supplemental oxygen—no longer requires ongoing medical care (other than per protocol study drug administration) 7. Not hospitalized. […] Similar improvements would be expected upon treatment with other intracellular Calcium signaling inhibitors or CRAC inhibitors.

[3] = tested on: human peripheral blood lymphocytes; experiment: In vitro micronucleus assay; type: cell-based
[4] = tested on: IL-17 release by human PBMCs; experiment: IL-17 release by human PBMCs, isolated cell assay; type: cell-based; details: PBMC, SEM (n), read-out: Compound 1 IC50, IL-17 release by human PBMCs
Excerpt: as §1

human blood and plasma = experiment: Hemolysis testing
Excerpt: Hemolysis testing concluded that Compound 1 was compatible with human plasma and non-hemolytic in human blood.

[5] = tested on: IFNγ released from human PBMCs; experiment: Cytokine released from human PBMCs: IFNγ; type: cell-based
Excerpt: as §1

[6] = tested on: IL-2 release by human CD4+ T cells; experiment: IL-2 release by human CD4+ T cells, isolated cell assay; type: cell-based; details: SEM (n), read-out: Compound 1 IC50, IL-2 release by human CD4+ T cells
Excerpt: as §1

[7] = Phase 1 multiple ascending dose study (Compound 1 Test 102), healthy subjects; details: for AUC(0-t) / Cmax: human, plasma, intravenous
Method: One of the subjects received placebo at the maximum dose volume of emulsion, 1.3 mL/kg, for 7 days, whereas all others were dosed on a weight-based adjustment of dose volume.

[8] = tested on: stimulated IL-2 release in whole blood; experiment: Whole blood assay of stimulated IL-2 release; type: cell-based; details: Human whole blood; SEM (n); read-out: Compound 1 IC50, whole blood assay of stimulated IL-2 release
Excerpt: as §1

Cc1cccc(F)c1C(=O)Nc1cnc(-c2cc3c(cc2Cl)OC(F)(F)O3)cn1 [Compound 1, N-(5-(6-Chloro-2,2-difluorobenzo[d][1,3]dioxol-5-yl)pyrazin-2-yl)-2-fluoro-6-methylbenzamide]
phototoxicity, in vitro 3T3 (3T3): potentially phototoxic
IC50 [1]: 10 ± 0.4 nM
Difference (Compound 1 − Standard Care), estimated mean of ordinal scale ([2]; Study Day 0): 0.00
Difference (Compound 1 − Standard Care), ordinal scale, sensitivity analysis ([2]; Study Day 0): 0.00
Difference (Compound 1 − Standard Care), estimated mean of ordinal scale ([2]; Study Day 1): 0.75
Difference (Compound 1 − Standard Care), ordinal scale, sensitivity analysis ([2]; Study Day 1): 0.70
Difference (Compound 1 − Standard Care), estimated mean of ordinal scale ([2]; Study Day 2): 0.83
Difference (Compound 1 − Standard Care), ordinal scale, sensitivity analysis ([2]; Study Day 2): 0.80
Difference (Compound 1 − Standard Care), estimated mean of ordinal scale ([2]; Study Day 3): 1.17
Difference (Compound 1 − Standard Care), ordinal scale, sensitivity analysis ([2]; Study Day 3): 1.10
Difference (Compound 1 − Standard Care), estimated mean of ordinal scale ([2]; Study Day 4): 1.73
Difference (Compound 1 − Standard Care), ordinal scale, sensitivity analysis ([2]; Study Day 4): 1.76
Difference (Compound 1 − Standard Care), estimated mean of ordinal scale ([2]; Study Day 5): 1.87
Difference (Compound 1 − Standard Care), ordinal scale, sensitivity analysis ([2]; Study Day 5): 2.02
Difference (Compound 1 − Standard Care), estimated mean of ordinal scale ([2]; Study Day 6): 2.04
Difference (Compound 1 − Standard Care), ordinal scale, sensitivity analysis ([2]; Study Day 6): 2.23
Difference (Compound 1 − Standard Care), estimated mean of ordinal scale ([2]; Study Day 7): 1.30
Difference (Compound 1 − Standard Care), ordinal scale, sensitivity analysis ([2]; Study Day 7): 1.79
Difference (Compound 1 − Standard Care), estimated mean of ordinal scale ([2]; Study Day 8): 1.39
Difference (Compound 1 − Standard Care), ordinal scale, sensitivity analysis ([2]; Study Day 8): 1.89
Difference (Compound 1 − Standard Care), estimated mean of ordinal scale ([2]; Study Day 9): 1.48
Difference (Compound 1 − Standard Care), ordinal scale, sensitivity analysis ([2]; Study Day 9): 1.90
Difference (Compound 1 − Standard Care), estimated mean of ordinal scale ([2]; Study Day 10): 1.21
Difference (Compound 1 − Standard Care), ordinal scale, sensitivity analysis ([2]; Study Day 10): 1.81
Difference (Compound 1 − Standard Care), estimated mean of ordinal scale ([2]; Study Day 12): 1.31
Difference (Compound 1 − Standard Care), ordinal scale, sensitivity analysis ([2]; Study Day 12): 1.81
Difference (Compound 1 − Standard Care), estimated mean of ordinal scale ([2]; Study Day 14): 1.05
Difference (Compound 1 − Standard Care), ordinal scale, sensitivity analysis ([2]; Study Day 14): 2.07
Difference (Compound 1 − Standard Care), ordinal scale, sensitivity analysis ([2]; Study Day 16): 1.82
Difference (Compound 1 − Standard Care), ordinal scale, sensitivity analysis ([2]; Study Day 18): 1.83
ordinal scale (7-point) ([2]; interim): improvement
Subjects out of hospital ([2]; interim, 9/12 subjects): 9/12 (75%)
PaO2/FiO2 ([2]; interim, following administration): increased
probability of being at a hospital over time ([2]; interim, versus standard care): lower probability of being at a hospital over time
KM estimate of number of days in hospital, median ([2]; interim, 95% CI (4 days, na)): 5.5 days (4 days, na)
micronucleus assay result [3]: weakly positive/equivocal
IC50 [4]: 122 ± 36 nM
compatibility with human plasma (human blood and plasma): compatible
hemolysis in human blood (human blood and plasma): non-hemolytic
IC50 ([5]; Homo sapiens, PBMC, mean of replicates, read-out: Mean IC50, IFNγ released from human PBMCs): 138 nM
IC50 ([5]; Homo sapiens, PBMC, single replicates, read-out: Replicate IC50 values, IFNγ released from human PBMCs): 175 nM
IC50 ([5]; single replicates, read-out: Replicate IC50 values, IFNγ released from human PBMCs): 102 nM
IC50 [6]: 4 ± 0.5 nM
Cmax accumulation ([7]; MAD Group 1, 0.5 mg/kg): 1.6 fold
increase in systemic exposure (AUC24 h), Day 7 compared to Day 1 ([7]; MAD Group 1, 0.5 mg/kg): 2.6 fold
margin of Day 7 AUC24 h below NOAEL AUC24 h in monkey ([7]; MAD Group 1, 0.5 mg/kg): 9.1 fold
Cmax accumulation ([7]; MAD Group 2, 1.0 mg/kg): 1.4 fold
increase in AUC24 h, Day 7 compared to Day 1 ([7]; MAD Group 2, 1.0 mg/kg): 2.6 fold
margin of Day 7 AUC24 h below NOAEL AUC24 h in monkey ([7]; MAD Group 2, 1.0 mg/kg): 4.2 fold
clinically significant laboratory abnormalities ([7]; MAD group 1): No laboratory abnormalities
SAEs and AEs classified as moderate or severe ([7]; MAD group 1, 0.50 mg/kg daily for 7 days): no SAEs and no AEs classified as moderate or severe in intensity
number of clinical AEs (all mild) ([7]; MAD group 1, eight subjects incl. placebo): 15
clinically significant laboratory abnormalities ([7]; MAD group 2): No laboratory abnormalities
SAEs and AEs classified as moderate or severe ([7]; MAD group 2, 1.0 mg/kg daily for 7 days): no SAEs and no AEs classified as moderate or severe in intensity
number of AEs (all mild) ([7]; MAD group 2, eight subjects incl. placebo): three
cardiac function: heart rate, QTcF, B-type natriuretic peptide ([7]; MAD, both groups): no evidence of any sustained treatment related effect
systolic or diastolic blood pressure ([7]; MAD, both groups): no evidence of any sustained treatment related increase
AUC(0-t) ([7]; 0.5 mg/kg): 3190 ng·h/mL
Cmax ([7]; 0.5 mg/kg): 363 ng/mL
AUC(0-t) ([7]; 1 mg/kg): 6830 ng·h/mL
Cmax ([7]; 1 mg/kg): 637 ng/mL
IC50 [8]: 178 ± 32 nM
